Experimental data: patent US7189351B2, “D-tagatose as an anti-biofilm agent” (priority 2001, dated 2007)

What was measured:
[1] = system: Actinomyces naeslundii PK29/Streptococcus mitis J22; assay: reversal of coaggregation, visual score; format: cell-based; set-up: key to reversal of coaggregation: *: Coaggregations were reversed by both D-galactose and D-tagatose; conditions: for reversal of coaggregation: pair J22/PK29, coaggregation score 4 without sugar; for coaggregation score: pair PK29/J22, water score 4, scale 0 no visible to 4 maximum coaggregation
Method: (§1) Fifteen oral isolates, including both early colonizers (Streptococcus and Actinomyces) and late colonizers (Fusobacterium, Porphyromonas, Prevotella, Veillonella, Capnocytophaga, and Actinobacillus), were tested for their ability to coaggregate with each other, followed by testing for the reversal of coaggregation by the addition of D-tagatose. Bacterial strains used were of human gingival crevice origin. The coaggregation was examined visually by a scoring system ranging from 0 for no visible coaggregation to 4 for maximum coaggregation [Cisar J. O., Kolenbrander P. E., and McIntire F. C., “Specificity of coaggregation reactions between human oral streptococci and strains of Actinomyces viscosus or Actinomyces naeslundii”, Infect. Immun., 24:742–752. 1979]. D-Tagatose, at a concentration of less than 750 mM, completely reversed the coaggregation of 17 (60%) of 28 strong coaggregating pairs (with a coaggregation score of 2 or higher) tested. […] These D-tagatose sensitive coaggregations were D-galactose reversible as well.
(§2) Pairs of various species of oral bacteria were tested for coaggregation, and for reversal of coaggregation when D-tagatose or D-galactose was administered.

[2] = system: Fusobacterium nucleatum PK1594/Capnocytophaga ochracea 25; assay: reversal of coaggregation, visual score; format: cell-based; set-up: key: *: Coaggregations were reversed by both D-galactose and D-tagatose; conditions: pair PK1594/Capno 25; coaggregation score 1 without sugar
Method: as §1, §2

[3] = system: Prevotella loescheii PK1295/Streptococcus oralis C104; assay: reversal of coaggregation, visual score; format: cell-based; set-up: key: *: Coaggregations were reversed by both D-galactose and D-tagatose
Method: as §1, §2

[4] = system: Prevotella loescheii PK1295/Streptococcus oralis SO34; assay: reversal of coaggregation, visual score; format: cell-based; set-up: key: *: Coaggregations were reversed by both D-galactose and D-tagatose
Method: as §1, §2

[5] = system: oral bacteria; conditions: known from literature; cited from earlier work
[6] = system: dental plaque; assay: D-tagatose in foods to control dental plaque (Example 3); format: in vivo, human; conditions: third monthly check-up
Description: Forty subjects, half male, half female, ranging from 4 to 80 years in age, daily consume foodstuffs, such as cakes, cookies, pies, hard candy, hot and cold cereals, cold fruit drinks, iced tea, coffee and tea, that are sweetened with conventional sweeteners including sucrose and high fructose corn syrup (HFCS). After several monthly check-ups, these subjects are found to have high dental plaque indices, and many of them are diagnosed with plaque-related oral diseases. At this point, the test foodstuffs are switched such that D-tagatose is used as a one-for-one replacement for the table sugar and HFCS previously used. No other changes are made in the test regimen.

[7] = system: staphylococcus lesion of the leg; assay: D-tagatose enhancing antibiotic activity (Example 4); format: in vivo, human; conditions: one patient; five grams with each of three meals daily plus oral penicillin; in the course of a week
Description: A patient with a staphylococcus lesion of the leg is placed on oral penicillin by their physician. […] The formation of plaque in the infected region protects the interior microorganisms from the antibiotic coursing through the bloodstream, and the plaque organisms develop increased resistance. The physician prescribes five grams of D-tagatose be taken with each of three meals daily, along with continued taking of the penicillin.

[8] = system: biofilm on the heart valve; assay: prophylaxis against prosthetic valve endocarditis (Example 5); format: in vivo, human; conditions: one patient; 10 grams with each of three daily meals, three days before until one week after surgery
Description: An adult patient requires removal of their infected mitral valve and its replacement with a prosthetic valve. One of the principal hazards of such an operation is that the valve region of the heart will become infected, frequently with streptococci that form a biofilm protecting internal microorganisms from antibiotics, and also permitting such organisms to develop increasing resistance. In order to prevent the buildup of a biofilm infection, the physician places their patient on tagatose treatment for three days prior to the surgery. On each such day, the patient consumes 10 grams of D-tagatose with each of their three daily meals. The resulting D-tagatose blood level is sufficient to preclude the formation of a biofilm on the heart valve. The treatment is continued until one week after the operation and the patient is well on the road to recovery.

[9] = prevention of stroke (Example 6); format: in vivo, human; conditions: one patient with high blood pressure; 5 grams with each of three daily meals
Description: A patient has gradually developed high blood pressure over the years. Their doctor places them on a blood pressure medicine when their pressure reaches 135/90 mm Hg. Despite gradual increases in dosage of the medicine, and trials of new medicines, over time their blood pressure continues to increase until reaching 145/100 mm Hg. At this point the physician fears the possibility of a stroke.

[10] = system: total bacteria and coliform; assay: sterilization of food-handling machinery, wash before Clean-In-Place (Example 7); conditions: 200 mM in sterile water run through equipment immediately prior to CIP
Method: A cheese-making plant processes raw milk into cheese. The equipment includes many tubes, tubules, pipes and other surfaces that come in direct contact with the milk. Between runs, standard “Clean-In-Place” (CIP) operations are performed in which acid and oxidants are coursed through the equipment to contact all surfaces and are then washed out with sterile water. However, the formation of microbial plaques protects the microorganisms in the interiors of the plaques, and some survive the CIP. To overcome this problem, an initial step is added to the CIP whereby a stream of 200 mM D-tagatose in sterile water is run through the equipment, contacting all surfaces, immediately prior to instituting the CIP. […] Accordingly, the D-tagatose wash is made part of the CIP.

[11] = pair Cl04/PK1295, coaggregation score 4 without sugar
[12] = pair SO34/PK1295, coaggregation score 4 without sugar

Structure (SMILES)	reversal of coaggregation [1]	coaggregation score ([1]; sugar 143 mM)	coaggregation score without sugar [2]	coaggregation score [3, 11]	coaggregation score ([3]; pair PK1295/C104, sugar 143 mM, water score 4, scale 0 no visible to 4 maximum coaggregation)	coaggregation score ([4]; pair PK1295/SO34, sugar 143 mM, water score 4, scale 0 no visible to 4 maximum coaggregation)	coaggregation score [4, 12]	reversal of coaggregations that would otherwise form dental plaque [5]	coaggregation score ([1]; sugar 750 mM)	coaggregation score ([3]; pair PK1295/C104, sugar 750 mM, water score 4, scale 0 no visible to 4 maximum coaggregation)	coaggregation score ([4]; pair PK1295/SO34, sugar 750 mM, water score 4, scale 0 no visible to 4 maximum coaggregation)	plaque indices ([6]; forty subjects, D-tagatose one-for-one replacement for table sugar and HFCS in foodstuffs)	plaque-related oral diseases ([6]; subjects who formerly exhibited disease)	outcome of staphylococcus lesion [7]	infection after prosthetic valve replacement [8]	risk of stroke [9]	total bacteria and coliform counts in cheese-making equipment [10]
O=C[C@H](O)[C@@H](O)[C@@H](O)[C@H](O)CO [D-Galactose]	4*	1	1*	4*	1	0	4*	reverse the coaggregations of oral bacteria	–	–	–	–	–	–	–	–	–
O=C(CO)[C@@H](O)[C@@H](O)[C@H](O)CO [D-Tagatose]	4*	–	1*	4*	–	–	4*	–	1	2	1	significantly lowered	complete or nearly complete recovery	the lesion disappears	Infection has been avoided	significantly reduced	reducing the total bacteria and the coliform counts to acceptable regulatory levels
